The molecules below were run against T1, CDK2 (Homo sapiens, UniProt P24941) (assay: Phospho-RB measurement in OVCAR3 cells (HTRF phospho-RB cellular kit)). Details: inhibition of RB phosphorylation at S807/811 (HTRF, TR-FRET ratio 665/620), 24 h compound treatment, 0.3 to 10,000 nM.
T1 construct: endogenous in cells; host or cells: OVCAR3 cells
Type: cell-based
Summary of the method: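 IC50 came from a four-parameter logistic fit of the DMSO-normalized TR-FRET ratio (665/620 nm). That ratio reflects RB phosphorylation at S807/811, read with an HTRF antibody pair 4 h after adding lysate at room temperature.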

SMILES	IC50 [nM]
O=S1(=O)CC2(CC(Nc3nccc(-c4sc(C56CC(C5)C6)nc4-c4cccc(NS(=O)(=O)N5C6CCC5c5ccccc56)c4F)n3)C2)C1 [Example 268, N-(3-(2-(bicyclo [1.1.1]pentan-1-yl)-5-(2-((2,2-dioxido-2-thiaspiro[3.3]heptan-6-yl)amino)-pyrimidin-4-yl)thiazol-4-yl)-2-fluorophenyl)-1,2,3,4-tetrahydro-1,4-epiminonaphthalene-9-sulfonamide]	8310
CS(=O)(=O)CC12CC(Nc3nccc(-c4sc(C56CC(C5)C6)nc4-c4cccc(NS(=O)(=O)N5CCc6ccc(Cl)cc65)c4F)n3)(C1)C2 [Example 269, N-(3-(2-(bicyclo [1.1.1]pentan-1-yl)-5-(2-((3-((methylsulfonyl)methyl)bicyclo-[1.1.1]pentan-1-yl)amino)pyrimidin-4-yl)thiazol-4-yl)-2-fluorophenyl)-6-chloroindoline-1-sulfonamide]	70.6
O=S1(=O)CC2(CC(Nc3nccc(-c4sc(C56CC(C5)C6)nc4-c4cccc(NS(=O)(=O)N5CC6CCC(CC6)C5)c4F)n3)C2)C1 [Example 270, (1s,5s)-N-(3-(2-(bicyclo[1.1.1]pentan-1-yl)-5-(2-((2,2-dioxido-2-thiaspiro[3.3]-heptan-6-yl)-amino)pyrimidin-4-yl)thiazol-4-yl)-2-fluorophenyl)-3-azabicyclo[3.2.2] nonane-3-sulfonamide]	3430
N=S1(=O)CC2(CC(Nc3nccc(-c4sc(C56CC(C5)C6)nc4-c4cccc(NS(=O)(=O)N5CCc6ccccc65)c4F)n3)C2)C1 (stereo not drawn) [Example 271, N-(3-(2-(bicyclo [1.1.1]pentan-1-yl)-5-(2-((2-imino-2-oxido-26-thiaspiro[3.3]-heptan-6-yl)-amino)pyrimidin-4-yl)thiazol-4-yl)-2-fluorophenyl) indoline-1-sulfonamide]	8150
O=S1(=O)CC2(CC(Nc3nccc(-c4sc(C56CC(C5)C6)nc4-c4cccc(NS(=O)(=O)N5CCOc6ccccc6C5)c4F)n3)C2)C1 [Example 272, N-(3-(2-(bicyclo [1.1.1]pentan-1-yl)-5-(2-((2,2-dioxido-2-thiaspiro[3.3]heptan-6-yl)amino)-pyrimidin-4-yl)thiazol-4-yl)-2-fluorophenyl)-2,3-dihydrobenzo-[f][1,4]oxazepine-4(5H)-sulfonamide]	350
O=S1(=O)CC2(CC(Nc3nccc(-c4sc(C56CC(C5)C6)nc4-c4cccc(NS(=O)(=O)N5CCOCc6ccccc65)c4F)n3)C2)C1 [Example 273, N-(3-(2-(bicyclo [1.1.1]pentan-1-yl)-5-(2-((2,2-dioxido-2-thiaspiro[3.3]heptan-6-yl)amino)-pyrimidin-4-yl)thiazol-4-yl)-2-fluorophenyl)-2,3-dihydrobenzo-[e][1,4]oxazepine-1(5H)-sulfonamide]	3280
CN1CCN(S(=O)(=O)Nc2cccc(-c3nc(C45CC(C4)C5)sc3-c3ccnc(NC4CC5(C4)CS(=O)(=O)C5)n3)c2F)c2ccccc21 [Example 274, N-(3-(2-(bicyclo [1.1.1]pentan-1-yl)-5-(2-((2,2-dioxido-2-thiaspiro[3.3]heptan-6-yl)amino)-pyrimidin-4-yl)thiazol-4-yl)-2-fluorophenyl)-4-methyl-3,4-dihydro-quinoxaline-1(2H)-sulfonamide]	130
CN1CCN(S(=O)(=O)Nc2cccc(-c3nc(C45CC(C4)C5)sc3-c3ccnc(NC4CC5(C4)CS(=O)(=O)C5)n3)c2F)Cc2ccccc21 [Example 275, N-(3-(2-(bicyclo [1.1.1]pentan-1-yl)-5-(2-((2,2-dioxido-2-thiaspiro[3.3]heptan-6-yl)amino)-pyrimidin-4-yl)thiazol-4-yl)-2-fluorophenyl)-1-methyl-1,2,3,5-tetrahydro-4H-benzo[e][1,4]-diazepine-4-sulfonamide]	339
CS(=O)(=O)[C@H]1CC[C@H](Nc2nccc(-c3sc(C45CC(F)(C4)C5)nc3-c3cccc(NS(=O)(=O)N4CCc5ccc(C(F)(F)F)cc54)c3F)n2)CC1 [Example 276, N-(2-fluoro-3-(2-(3-fluorobicyclo-[1.1.1]pentan-1-yl)-5-(2-(((1s,4s)-4-(methylsulfonyl)-cyclohexyl)amino)-pyrimidin-4-yl)thiazol-4-yl)phenyl)-6-(trifluoromethyl) indoline-1-sulfonamide]	192
O=S1(=O)CC2(CC(Nc3nccc(-c4sc(C56CC(F)(C5)C6)nc4-c4cccc(NS(=O)(=O)N5CCc6ccc(C(F)(F)F)cc65)c4F)n3)C2)C1 [Example 277, N-(3-(5-(2-((2,2-dioxido-2-thiaspiro-[3.3]-heptan-6-yl)amino)pyrimidin-4-yl)-2-(3-fluorobicyclo [1.1.1]pentan-1-yl)-thiazol-4-yl)-2-fluorophenyl)-6-(trifluoromethyl) indoline-1-sulfonamide]	111
O=S1(=O)CC2(CC(Nc3nccc(-c4sc(C56CC(C(F)F)(C5)C6)nc4-c4cccc(NS(=O)(=O)N5CCc6ccc(C(F)(F)F)cc65)c4F)n3)C2)C1 [Example 278, N-(3-(2-(3-(difluoromethyl)bicyclo-[1.1.1]-pentan-1-yl)-5-(2-((2,2-dioxido-2-thiaspiro[3.3]heptan-6-yl)amino)-pyrimidin-4-yl)thiazol-4-yl)-2-fluorophenyl)-6-(trifluoromethyl)-indoline-1-sulfonamide]	103
O=S1(=O)CC2(CC(Nc3nccc(-c4sc(C56CC(C(F)(F)F)(C5)C6)nc4-c4cccc(NS(=O)(=O)N5CCc6ccc(C(F)(F)F)cc65)c4F)n3)C2)C1 [Example 279, N-(3~(5-(2-((2,2-dioxido-2-thiaspiro-[3.3]heptan-6-yl)amino)pyrimidin-4-yl)-2-(3-(trifluoromethyl)bicyclo[1.1.1]-pentan-1-yl)thiazol-4-yl)-2-fluoro-phenyl)-6-(trifluoromethyl) indoline-1-sulfonamide]	409
O=S1(=O)CC2(CC(Nc3nccc(-c4sc(C56CC(C(F)(F)F)(C5)C6)nc4-c4cccc(NS(=O)(=O)N5CCc6ccc(Cl)cc65)c4F)n3)C2)C1 [Example 280, 6-chloro-N-(3-(5-(2-((2,2-dioxido-2-thiaspiro[3.3]heptan-6-yl)amino)-pyrimidin-4-yl)-2-(3-(trifluoromethyl)-bicyclo[1.1.1]pentan-1-yl)thiazol-4-yl)-2-fluorophenyl) indoline-1-sulfonamide]	285
O=S1(=O)CC2(CC(Nc3nccc(-c4sc(C56CC(C(F)(F)F)(C5)C6)nc4-c4cccc(NS(=O)(=O)N5CCc6ccccc65)c4F)n3)C2)C1 [Example 281]	739
CS(=O)(=O)[C@H]1CC[C@H](Nc2nccc(-c3sc(C4(C(F)(F)F)CC4)nc3-c3cccc(NS(=O)(=O)N4CCc5ccc(C(F)(F)F)cc54)c3F)n2)CC1 [Example 282, N-(2-fluoro-3-(5-(2-(((1r,4r)-4-(methylsulfonyl)cyclohexyl)amino)pyrimidin-4-yl)-2-(1-(trifluoromethyl)-cyclopropyl)thiazol-4-yl)phenyl)-6-(trifluoromethyl) indoline-1-sulfonamide]	357
CS(=O)(=O)[C@H]1CC[C@H](Nc2nccc(-c3sc(C4(C(F)(F)F)CC4)nc3-c3cccc(NS(=O)(=O)N4CCc5ccc(Cl)cc54)c3F)n2)CC1 [Example 283, 6-chloro-N-(2-fluoro-3-(5-(2-(((1r,4r)-4-(methylsulfonyl)cyclohexyl)amino)pyrimidin-4-yl)-2-(1-(trifluoromethyl)-cyclopropyl)thiazol-4-yl)phenyl)-indoline-1-sulfonamide]	200
CS(=O)(=O)[C@H]1CC[C@H](Nc2nccc(-c3sc(C4(C(F)(F)F)CC4)nc3-c3cccc(NS(=O)(=O)N4CCc5ccccc54)c3F)n2)CC1 [Example 284, N-(2-fluoro-3-(5-(2-(((11,4r)-4-(methylsulfonyl)cyclohexyl)amino)pyrimidin-4-yl)-2-(1-(trifluoromethyl)-cyclopropyl)thiazol-4-yl)phenyl)-indoline-1-sulfonamide]	384
CC1(S(C)(=O)=O)CCC(Nc2nccc(-c3sc(C45CC(C(F)(F)F)(C4)C5)nc3-c3cccc(NS(=O)(=O)N4CCc5ccccc54)c3F)n2)CC1 (stereo not drawn) [Example 285, N-(2-fluoro-3-(5-(2-((4-methyl-4-(methylsulfonyl)cyclohexyl)amino)pyrimidin-4-yl)-2-(3-(trifluoromethyl)bicyclo-[1.1.1]pentan-1-yl)thiazol-4-yl)phenyl)-indoline-1-sulfonamide]	3060
O=S1(=O)CC2(CC(Nc3nccc(-c4sc(C5(C(F)(F)F)CC5)nc4-c4cccc(NS(=O)(=O)N5CCc6ccc(C(F)(F)F)cc65)c4F)n3)C2)C1 [Example 286, N-(3-(5-(2-((2,2-dioxido-2-thiaspiro-[3.3]heptan-6-yl)amino)pyrimidin-4-yl)-2-(1-(trifluoromethyl)cyclopropyl)-thiazol-4-yl)-2-fluorophenyl)-6-(trifluoromethyl) indoline-1-sulfonamide]	574
O=S1(=O)CC2(CC(Nc3nccc(-c4sc(C5(C(F)(F)F)CC5)nc4-c4cccc(NS(=O)(=O)N5CCc6ccc(Cl)cc65)c4F)n3)C2)C1 [Example 287, 6-chloro-N-(3-(5-(2-((2,2-dioxido-2-thiaspiro[3.3]heptan-6-yl)amino)-pyrimidin-4-yl)-2-(1-(trifluoromethyl)-cyclopropyl)thiazol-4-yl)-2-fluoro-phenyl)indoline-1-sulfonamide]	347
CC(C)(c1nc(-c2cccc(NS(=O)(=O)N3CCc4ccccc43)c2F)c(-c2ccnc(N[C@H]3CC[C@H](S(C)(=O)=O)CC3)n2)s1)C(F)(F)F [Example 288, N-(2-fluoro-3-(5-(2-(((1r,4r)-4-(methylsulfonyl)cyclohexyl)amino)-pyrimidin-4-yl)-2-(1,1,1-trifluoro-2-methylpropan-2-yl)thiazol-4-yl)phenyl)-indoline-1-sulfonamide]	122

From US20260274833A1 (NiKang Therapeutics, Inc., priority 2022, published 2026)
